Experimental data taken from patent publication US20210253511A1, “COMPOUNDS AND USES FOR THE TREATMENT AND PREVENTION OF DISEASES AND CONDITIONS ASSOCIATE WITH OR AGGREVATED BY IMPARED MITOPHAGY” (Yissum Research Development Company of The Hebrew …, priority 2018, published 2021).

Test system: C. elegans worms in 200 mM paraquat (PQ)
Test: Paraquat survival assay
Format: in vivo
Details: 200 mM PQ; for protective effect on worms' survival in PQ (figure legend): concentration not given, log-rank test
Method: C. elegans strains were grown at 21° C. on nematode growth media (NGM) agar plates containing diamines or vehicle as a control. The NGM agar plates were prepared as described in L. Livshits, E. Gross, A method for measuring sulfide toxicity in the nematode Caenorhabditis elegans, MethodsX 4 (2017) 250-255. A suspension of 3 g sodium chloride (NaCl), 20 g Bacto agar, and 2.5 g of Bacto peptone in 1 L of double distilled water (DDW) was mixed and autoclaved. Then, the medium was cooled to 55° C. and supplemented with 1 ml of 100 mM CaCl2), 1 ml of 100 mM MgSO4, 25 ml of 1 M potassium phosphate buffer pH 6, and 1 ml of 5 mg/ml cholesterol (the cholesterol was dissolved in ethanol). Diamines or DDW (vehicle) were added to the NGM-agar solution. For RNAi NGM-agar plates, Isopropyl β-D-1-thiogalactopyranoside (IPTG) and ampicillin were added to a final concentration of 1 mM and 100 μg/ml, respectively. The NGM-agar solution was thoroughly vortex mixed and immediately poured into 35 mm petri dish (4 ml per plate). NGM-plates were covered with aluminum foil and dried for 24 h at room temperature (RT). 24 h before the experiment, plates were seeded with 100 μl bacteria (OD600=0.6, OP50 or HT115(DE3)). The seeded plates were covered with aluminum foil and dried for 24 h at RT.
To get synchronized C. elegans larvae, the method described in W. B. Wood, The Nematode Caenorhabditis Elegans, Cold Spring Harbor Laboratory 1988, was performed. In brief, hypochlorite/NaOH solution was made by mixing 1 ml of 5% solution of sodium hypochlorite, 800 μl of 2.5 N NaOH and 2.2 ml DDW to final concentrations of 0.5 N NaOH and 1.25% sodium hypochlorite. M9 buffer was made by dissolving 3 g KH2PO4, 6 g Na2HPO4, 5 g NaCl and 1 ml of MgSO4 from 1M stock in 1 litter of DDW. The solution pH was adjusted to 7 and sterilizes by filtration (with a 0.2 µm filter bottle). Gravid hermaphrodites was washed from the NGM plates into a 15 ml tube with M9 buffer and centrifuged for 2 min at 900×g, RT. Liquid was removed until 2 ml worms' suspension was left and added 2 ml of hypochlorite/NaOH solution. A 5 ml syringe with a 21-gauge needle was used to aspirate the worm suspension back and forth several times. After 3 min it was observed the state of the worms using a dissecting stereoscope. At this stage, approximately 50% of worms should appear broken and many of the embryos should float in the solution. The embryos were immediately sedimented using centrifugation (1690×g for 2 min) and carefully removed the supernatant and add 10 ml of M9 buffer. This washing step was repeated three additional times. The supernatant was removed until 2 ml remains and rotated the tube for 16 h at RT. The hatched L larvae were collected by centrifugation (1690×g for 3 min) and put ˜80 L in each seeded NGM assay plate. Grow the L1 (Day 1) for 3 days until they become young adults (Day 3).

[1] = compound at 0.25 mM, vs control worms
[2] = compound at 4 mM, vs control worms
[3] = tested at 0.0625 mM and 0.25 mM, not split

Compound	survival of worms in paraquat [1]	survival of worms in paraquat [2]	protective effect on worms' survival in PQ (figure legend)	survival of worms in paraquat (compound at 0.0625 mM, vs control worms)	survival of worms in paraquat [3]
NCCCCCCN [1,6-Diaminohexane]	did not have any effect	did not have any effect	–	–	–
N=C(N)NCCCCCCNC(=N)N [1,6-Diguanidinohexane]	significantly improve the survival of worms	–	significant protective effect	significantly improve the survival of worms	–
NOCCCCCCCCON [1,8-diaminooxy-octane]	–	–	significant protective effect	–	significantly improved the survival of worms in PQ
N=C(N)NCCCCCCCCNC(=N)N [1,8-diguanidinooctane]	–	–	significant protective effect	–	significantly improved the survival of worms in PQ
NOCCCCCCCCCON [1,9-diaminooxy-nonane]	–	–	significant protective effect	–	significantly improved the survival of worms in PQ
NCCCCCCCCCCN [1,10-Diaminodecane]	significantly improved worms' survival	significantly decreased worms' survival	–	–	–
NCCCCCCCCCCCCN [1,12-Diaminododecane]	did not	significantly improved their survival	–	–	–
